In patent US20260285855A1, “HETEROARYL DERIVATIVES AS DDRS INHIBITORS” (CHIESI FARMACEUTICI S.P.A., priority 2023, published 2026):

Assays:
DDR2 = target: T1, DDR2 (Homo sapiens, UniProt Q16832); assay: LanthaScreen Europium Kinase Binding assay, DDR2; conditions: 5 nM DDR2, 10 nM Kinase Tracer 178, 1 h at rt; Ki from IC50 by Cheng-Prusoff; read-out: Ki DDR2
T1 construct: purchased Life Technologies
T1 sequence (Q16832 22-855): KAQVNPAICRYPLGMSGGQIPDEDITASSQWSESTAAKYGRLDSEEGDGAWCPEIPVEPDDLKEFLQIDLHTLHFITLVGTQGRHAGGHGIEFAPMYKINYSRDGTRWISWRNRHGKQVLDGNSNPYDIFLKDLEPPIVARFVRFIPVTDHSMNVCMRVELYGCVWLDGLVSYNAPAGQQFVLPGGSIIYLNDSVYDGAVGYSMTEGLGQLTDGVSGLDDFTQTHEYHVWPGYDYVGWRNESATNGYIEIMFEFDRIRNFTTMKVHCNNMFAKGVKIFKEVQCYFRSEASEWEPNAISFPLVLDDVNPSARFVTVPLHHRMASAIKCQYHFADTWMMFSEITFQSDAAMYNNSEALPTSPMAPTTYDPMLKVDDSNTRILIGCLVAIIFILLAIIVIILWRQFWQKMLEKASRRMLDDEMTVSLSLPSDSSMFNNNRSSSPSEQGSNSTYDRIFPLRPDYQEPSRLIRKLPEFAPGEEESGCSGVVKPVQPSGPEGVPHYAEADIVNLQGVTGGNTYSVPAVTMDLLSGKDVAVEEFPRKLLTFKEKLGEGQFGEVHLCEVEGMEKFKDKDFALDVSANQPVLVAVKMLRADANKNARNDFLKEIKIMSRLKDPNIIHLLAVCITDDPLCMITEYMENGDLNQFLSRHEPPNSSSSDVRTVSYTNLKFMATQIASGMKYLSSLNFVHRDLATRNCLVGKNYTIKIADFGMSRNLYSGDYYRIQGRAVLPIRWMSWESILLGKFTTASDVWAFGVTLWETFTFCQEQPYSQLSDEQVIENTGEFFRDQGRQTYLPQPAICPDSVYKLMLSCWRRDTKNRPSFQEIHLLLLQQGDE
Method: (§1) DDR1 and DDR2 binding assays were performed using Life Technologies LanthaScreen™ Europium Kinase Binding assay. […] IC50 values were determined in GraphPad Prism 7.0 software, using 4 parameter model: log (inhibitor) vs. response. IC50 values were converted in Ki using the Cheng-Prusoff equation (Ki-IC50/(1+ [Tracer]/Kd).

DDR1 = target: T2, DDR1 (Homo sapiens, UniProt Q08345); assay: LanthaScreen Europium Kinase Binding assay, DDR1; conditions: 5 nM DDR1, 20 nM Kinase Tracer 178, 1 h at rt; Ki from IC50 by Cheng-Prusoff; read-out: Ki DDR1
T2 construct: purchased Carna Biosciences
T2 sequence (Q08345 19-913): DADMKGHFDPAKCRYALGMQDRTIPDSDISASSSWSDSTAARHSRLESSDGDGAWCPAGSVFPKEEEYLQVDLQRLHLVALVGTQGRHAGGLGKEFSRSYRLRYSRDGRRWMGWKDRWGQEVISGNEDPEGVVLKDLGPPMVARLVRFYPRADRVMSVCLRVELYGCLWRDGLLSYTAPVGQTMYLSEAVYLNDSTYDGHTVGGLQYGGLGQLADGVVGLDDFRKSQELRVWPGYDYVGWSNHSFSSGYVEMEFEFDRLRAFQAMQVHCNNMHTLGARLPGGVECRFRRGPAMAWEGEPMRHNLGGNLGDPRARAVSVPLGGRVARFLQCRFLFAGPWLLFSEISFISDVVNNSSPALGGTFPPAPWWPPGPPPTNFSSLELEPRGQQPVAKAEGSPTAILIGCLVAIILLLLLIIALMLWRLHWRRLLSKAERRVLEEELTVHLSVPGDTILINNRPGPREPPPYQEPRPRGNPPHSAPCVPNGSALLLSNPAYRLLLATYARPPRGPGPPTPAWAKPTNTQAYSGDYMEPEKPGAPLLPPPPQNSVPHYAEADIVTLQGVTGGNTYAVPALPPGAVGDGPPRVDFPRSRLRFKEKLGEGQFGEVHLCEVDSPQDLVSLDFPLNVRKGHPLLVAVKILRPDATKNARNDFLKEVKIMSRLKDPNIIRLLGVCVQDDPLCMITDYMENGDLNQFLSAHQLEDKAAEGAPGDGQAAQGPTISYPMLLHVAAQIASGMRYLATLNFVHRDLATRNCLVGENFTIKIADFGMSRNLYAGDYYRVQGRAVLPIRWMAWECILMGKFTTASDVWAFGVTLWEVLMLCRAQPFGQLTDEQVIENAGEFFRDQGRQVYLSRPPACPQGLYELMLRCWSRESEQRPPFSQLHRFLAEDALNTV
Method: as §1

Ki (DDR2) [nM] | Ki (DDR1) [nM] | Compound
5 to 25 | < 5 | O=C(Nc1cccc(C(F)(F)F)c1)NC1CC2(C1)CN(C(=O)c1cnc3ccccn13)C2 [Example 1, 1-(2-(imidazo[1,2-a]pyridine-3-carbonyl)-2-azaspiro[3.3]heptan-6-yl)-3-(3-(trifluoromethyl)phenyl)urea]
5 to 25 | < 5 | O=C(Nc1cccc(C(F)(F)F)c1)NC1CC2(C1)CN(C(=O)c1cnn3ccncc13)C2 [Example 2, 1-(2-(pyrazolo[1,5-a]pyrazine-3-carbonyl)-2-azaspiro[3.3]heptan-6-yl)-3-(3-(trifluoromethyl)phenyl)urea]
25 to 100 | 25 to 100 | O=C(Nc1cccc(C(F)(F)F)c1)NC1CC2(C1)CN(C(=O)c1cnc3[nH]ccc3c1)C2 [Example 3, 1-(2-(1H-pyrrolo[2,3-b]pyridine-5-carbonyl)-2-azaspiro[3.3]heptan-6-yl)-3-(3-(trifluoromethyl)phenyl)urea]
< 5 | < 5 | O=C(Nc1cccc(C(F)(F)F)c1)NC1CC2(C1)CN(C(=O)c1cnn3ccsc13)C2 [Example 4, 1-(2-(pyrazolo[5,1-b]thiazole-7-carbonyl)-2-azaspiro[3.3]heptan-6-yl)-3-(3-(trifluoromethyl)phenyl)urea]
5 to 25 | < 5 | CN1CCN(c2ccc3ncc(C(=O)N4CC5(CC(NC(=O)Nc6cccc(C(F)(F)F)c6)C5)C4)n3c2)CC1 [Example 5, 1-(2-(6-(4-methylpiperazin-1-yl)imidazo[1,2-a]pyridine-3-carbonyl)-2-azaspiro[3.3]heptan-6-yl)-3-(3-(trifluoromethyl)phenyl)urea]
5 to 25 | < 5 | O=C(Nc1cccc(C(F)(F)F)c1)NC1CC2(C1)CN(C(=O)c1cnc3n1CCOC3)C2 [Example 6, 1-(2-(5,6-dihydro-8H-imidazo[2,1-c][1,4]oxazine-3-carbonyl)-2-azaspiro[3.3]heptan-6-yl)-3-(3-(trifluoromethyl)phenyl)urea]
5 to 25 | 5 to 25 | O=C(Nc1cccc(C(F)(F)F)c1)NC1CC2(C1)CN(C(=O)c1cnc3cccnn13)C2 [Example 7, 1-(2-(imidazo[1,2-b]pyridazine-3-carbonyl)-2-azaspiro[3.3]heptan-6-yl)-3-(3-(trifluoromethyl)phenyl)urea]
5 to 25 | < 5 | Cn1cncc1C(=O)N1CC2(CC(NC(=O)Nc3cccc(C(F)(F)F)c3)C2)C1 [Example 8, 1-(2-(1-methyl-1H-imidazole-5-carbonyl)-2-azaspiro[3.3]heptan-6-yl)-3-(3-(trifluoromethyl)phenyl)urea]
< 5 | < 5 | Cn1ccn2ncc(C(=O)N3CC4(CC(NC(=O)Nc5cccc(C(F)(F)F)c5)C4)C3)c12 [Example 9, 1-(2-(1-methyl-1H-imidazo[1,2-b]pyrazole-7-carbonyl)-2-azaspiro[3.3]heptan-6-yl)-3-(3-(trifluoromethyl)phenyl)urea]
5 to 25 | 5 to 25 | O=C(Nc1cccc(C(F)(F)F)c1)NC1CC2(C1)CN(Cc1cnc3cnccn13)C2 [Example 11, 1-(2-(imidazo[1,2-a]pyrazin-3-ylmethyl)-2-azaspiro[3.3]heptan-6-yl)-3-(3-(trifluoromethyl)phenyl)urea]
5 to 25 | 5 to 25 | O=C(Nc1cccc(C(F)(F)F)c1)NC1CC2(C1)CN(Cc1cnc3[nH]ncc3c1)C2 [Example 12, 1-(2-((1H-pyrazolo[3,4-b]pyridine-5-yl)methyl)-2-azaspiro[3.3]heptan-6-yl)-3-(3-(trifluoromethyl)phenyl)urea]
< 5 | < 5 | O=C(Nc1cccc(C(F)(F)F)c1)NC1CC2(C1)CN(c1ccnc3[nH]ncc13)C2 [Example 15, 1-(2-(1H-pyrazolo[3,4-b]pyridin-4-yl)-2-azaspiro[3.3]heptan-6-yl)-3-(3-(trifluoromethyl)phenyl)urea]
5 to 25 | < 5 | O=C(Nc1cc(F)cc(C(F)(F)F)c1)NC1CC2(C1)CN(C(=O)c1cnn3ccncc13)C2 [Example 16, 1-(3-fluoro-5-(trifluoromethyl)phenyl)-3-(2-(pyrazolo[1,5-a]pyrazine-3-carbonyl)-2-azaspiro[3.3]heptan-6-yl)urea]
5 to 25 | < 5 | O=C(Nc1cc(C(F)(F)F)ccc1F)NC1CC2(C1)CN(C(=O)c1cnn3ccncc13)C2 [Example 17, 1-(2-fluoro-5-(trifluoromethyl)phenyl)-3-(2-(pyrazolo[1,5-a]pyrazine-3-carbonyl)-2-azaspiro[3.3]heptan-6-yl)urea]
25 to 100 | 5 to 25 | CC(C)(C)c1cc(NC(=O)NC2CC3(C2)CN(C(=O)c2cnn4ccncc24)C3)no1 [Example 18, 1-(5-(tert-butyl)isoxazol-3-yl)-3-(2-(pyrazolo[1,5-a]pyrazine-3-carbonyl)-2-azaspiro[3.3]heptan-6-yl)urea]
< 5 | < 5 | N#Cc1cc(NC(=O)NC2CC3(C2)CN(C(=O)c2cnn4ccncc24)C3)cc(C(F)(F)F)c1 [Example 19, 1-(3-cyano-5-(trifluoromethyl)phenyl)-3-(2-(pyrazolo[1,5-a]pyrazine-3-carbonyl)-2-azaspiro[3.3]heptan-6-yl)urea]
5 to 25 | < 5 | CC(C)(C)c1cc(NC(=O)NC2CC3(C2)CN(C(=O)c2cnn4ccsc24)C3)no1 [Example 20, 1-(5-(tert-butyl)isoxazol-3-yl)-3-(2-(pyrazolo[5,1-b]thiazole-7-carbonyl)-2-azaspiro[3.3]heptan-6-yl)urea]
< 5 | < 5 | O=C(Nc1cccc(OC(F)(F)F)c1)NC1CC2(C1)CN(C(=O)c1cnn3ccsc13)C2 [Example 21, 1-(2-(pyrazolo[5,1-b]thiazole-7-carbonyl)-2-azaspiro[3.3]heptan-6-yl)-3-(3-(trifluoromethoxy)phenyl)urea]
5 to 25 | < 5 | O=C(Nc1cncc(C(F)(F)F)c1)NC1CC2(C1)CN(C(=O)c1cnn3ccsc13)C2 [Example 22, 1-(2-(pyrazolo[5,1-b]thiazole-7-carbonyl)-2-azaspiro[3.3]heptan-6-yl)-3-(5-(trifluoromethyl)pyridin-3-yl)urea]
< 5 | < 5 | COc1ccc(OC(F)(F)F)cc1NC(=O)NC1CC2(C1)CN(C(=O)c1cnn3ccsc13)C2 [Example 23, 1-(2-methoxy-5-(trifluoromethoxy)phenyl)-3-(2-(pyrazolo[5,1-b]thiazole-7-carbonyl)-2-azaspiro[3.3]heptan-6-yl)urea]
5 to 25 | < 5 | CN(C)Cc1ccc(NC(=O)NC2CC3(C2)CN(C(=O)c2cnn4ccsc24)C3)cc1C(F)(F)F [Example 24, 1-(4-((dimethylamino)methyl)-3-(trifluoromethyl)phenyl)-3-(2-(pyrazolo[5,1-b]thiazole-7-carbonyl)-2-azaspiro[3.3]heptan-6-yl)urea]
25 to 100 | 5 to 25 | CN(C(=O)Nc1cccc(C(F)(F)F)c1)C1CC2(C1)CN(C(=O)c1cnn3ccncc13)C2 [Example 25, 1-methyl-1-(2-(pyrazolo[1,5-a]pyrazine-3-carbonyl)-2-azaspiro[3.3]heptan-6-yl)-3-(3-(trifluoromethyl)phenyl)urea]
< 5 | < 5 | O=C(CC1CC2(C1)CN(C(=O)c1cnn3ccsc13)C2)Nc1cccc(C(F)(F)F)c1 [Example 27, 2-(2-(pyrazolo[5,1-b]thiazole-7-carbonyl)-2-azaspiro[3.3]heptan-6-yl)-N-(3-(trifluoromethyl)phenyl)acetamide]
5 to 25 | < 5 | O=C(CC1CC2(C1)CN(C(=O)c1cnc3ccccn13)C2)Nc1cccc(C(F)(F)F)c1 [Example 28, 2-(2-(imidazo[1,2-a]pyridine-3-carbonyl)-2-azaspiro[3.3]heptan-6-yl)-N-(3-(trifluoromethyl)phenyl)acetamide]
< 5 | < 5 | O=C(Nc1cccc(CC(F)(F)F)c1)NC1CC2(C1)CN(C(=O)c1cnn3ccsc13)C2 [Example 31, 1-(2-(pyrazolo[5,1-b]thiazole-7-carbonyl)-2-azaspiro[3.3]heptan-6-yl)-3-(3-(2,2,2-trifluoroethyl)phenyl)urea]
5 to 25 | < 5 | Nc1cccn2ncc(C(=O)N3CC4(CC(NC(=O)Nc5cccc(C(F)(F)F)c5)C4)C3)c12 [Example 32, 1-(2-(4-aminopyrazolo[1,5-a]pyridine-3-carbonyl)-2-azaspiro [3.3]heptan-6-yl)-3-(3-(trifluoromethyl)phenyl)urea]
